The source made the active and inactive calls. The calls are words filed in the database; no cut-off is given here.
What was measured:
[1] = Cytotoxicity against mouse GL26 cells assessed as inhibition of cell growth incubated for 48 hrs by MTT assay; assay type: functional, cell-based; details: GL26, 48 h
[2] = tested on: U-251; test: Cytotoxicity against human U251 cells assessed as inhibition of cell growth incubated for 48 hrs by MTT assay; assay type: functional, cell-based; details: DDE = dose-dependent effect
[3] = tested on: GL26; test: Antiproliferative activity against mouse GL26 cells assessed as decrease in number of colonies at 0.625 to 1.25 uM incubated for 48 hrs by colony formation assay; assay type: functional, cell-based; details: dose 0.625-1.25 µM
[4] = target: T1, Amine oxidase [flavin-containing] A (Homo sapiens, UniProt P21397); test: Inhibition of MAO-A (unknown origin) expressed in mouse GL26 cells using 14C 5-hydroxytryptamine as substrate pre-incubated for 20 mins followed by substrate addition measured after 20 mins by liquid scintillation spectroscopy; assay type: cell-based
T1 sequence (P21397 whole entry): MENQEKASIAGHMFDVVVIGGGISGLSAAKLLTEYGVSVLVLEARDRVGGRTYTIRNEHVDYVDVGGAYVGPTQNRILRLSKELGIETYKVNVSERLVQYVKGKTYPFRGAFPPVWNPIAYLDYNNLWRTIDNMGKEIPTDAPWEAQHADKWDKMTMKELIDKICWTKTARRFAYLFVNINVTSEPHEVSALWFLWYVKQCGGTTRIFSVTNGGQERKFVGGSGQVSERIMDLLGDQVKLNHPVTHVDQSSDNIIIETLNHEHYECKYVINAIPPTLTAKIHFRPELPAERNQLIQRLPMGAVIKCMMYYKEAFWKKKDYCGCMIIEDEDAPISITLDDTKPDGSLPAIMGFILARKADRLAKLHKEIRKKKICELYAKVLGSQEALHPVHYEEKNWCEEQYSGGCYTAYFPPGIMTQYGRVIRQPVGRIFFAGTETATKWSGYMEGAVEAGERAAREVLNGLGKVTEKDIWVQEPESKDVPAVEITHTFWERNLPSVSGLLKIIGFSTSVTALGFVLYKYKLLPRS

[5] = target: Histone deacetylase 1 (Homo sapiens, UniProt Q13547); test: Inhibition of human HDAC1 (379 to 382 residues) using RHKKAc-AMC fluorogenic peptide as substrate by fluorescence assay
[6] = target: T2, Protein deacetylase HDAC6 (Homo sapiens, UniProt Q9UBN7); test: Inhibition of human HDAC6 (379 to 382 residues) using RHKKAc fluorogenic peptide as substrate by fluorescence assay
T2 sequence (Q9UBN7 whole entry): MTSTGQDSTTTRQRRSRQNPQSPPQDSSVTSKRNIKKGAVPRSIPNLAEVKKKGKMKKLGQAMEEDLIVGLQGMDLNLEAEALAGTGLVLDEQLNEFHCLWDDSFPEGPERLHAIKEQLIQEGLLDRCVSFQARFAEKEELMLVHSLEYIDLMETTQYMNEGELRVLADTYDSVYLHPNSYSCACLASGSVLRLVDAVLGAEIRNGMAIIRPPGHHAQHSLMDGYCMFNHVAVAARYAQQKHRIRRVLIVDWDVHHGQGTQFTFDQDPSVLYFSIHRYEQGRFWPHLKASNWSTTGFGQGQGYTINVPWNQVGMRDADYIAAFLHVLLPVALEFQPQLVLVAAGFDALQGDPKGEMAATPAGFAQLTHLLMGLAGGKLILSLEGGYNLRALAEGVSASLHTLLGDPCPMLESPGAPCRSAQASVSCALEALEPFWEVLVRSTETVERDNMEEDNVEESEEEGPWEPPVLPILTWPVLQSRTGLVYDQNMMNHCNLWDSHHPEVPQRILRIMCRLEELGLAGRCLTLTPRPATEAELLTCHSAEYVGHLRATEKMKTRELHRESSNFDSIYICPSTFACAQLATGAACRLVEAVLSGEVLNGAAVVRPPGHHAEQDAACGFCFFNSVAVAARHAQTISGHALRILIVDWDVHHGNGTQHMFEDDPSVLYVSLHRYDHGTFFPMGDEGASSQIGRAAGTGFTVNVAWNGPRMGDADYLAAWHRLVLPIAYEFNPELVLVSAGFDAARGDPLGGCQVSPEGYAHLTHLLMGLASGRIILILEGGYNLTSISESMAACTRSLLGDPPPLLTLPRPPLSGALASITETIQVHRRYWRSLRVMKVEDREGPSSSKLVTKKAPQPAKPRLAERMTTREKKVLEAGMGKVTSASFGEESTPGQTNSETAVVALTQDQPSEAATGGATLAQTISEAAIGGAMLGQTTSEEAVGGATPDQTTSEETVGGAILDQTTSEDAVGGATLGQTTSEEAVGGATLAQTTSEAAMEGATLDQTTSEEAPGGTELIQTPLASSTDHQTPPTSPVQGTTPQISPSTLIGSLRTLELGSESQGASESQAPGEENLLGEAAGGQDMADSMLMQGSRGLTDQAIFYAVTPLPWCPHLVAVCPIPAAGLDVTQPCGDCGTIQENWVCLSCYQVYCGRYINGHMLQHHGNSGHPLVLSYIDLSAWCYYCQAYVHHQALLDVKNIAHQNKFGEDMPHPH

[7] = target: T3, Histone deacetylase 8 (Homo sapiens, UniProt Q9BY41); test: Inhibition of human HDAC8 (379 to 382 residues) using RHKKAcKAc-AMC fluorogenic peptide as substrate by fluorescence assay
T3 sequence (Q9BY41 whole entry): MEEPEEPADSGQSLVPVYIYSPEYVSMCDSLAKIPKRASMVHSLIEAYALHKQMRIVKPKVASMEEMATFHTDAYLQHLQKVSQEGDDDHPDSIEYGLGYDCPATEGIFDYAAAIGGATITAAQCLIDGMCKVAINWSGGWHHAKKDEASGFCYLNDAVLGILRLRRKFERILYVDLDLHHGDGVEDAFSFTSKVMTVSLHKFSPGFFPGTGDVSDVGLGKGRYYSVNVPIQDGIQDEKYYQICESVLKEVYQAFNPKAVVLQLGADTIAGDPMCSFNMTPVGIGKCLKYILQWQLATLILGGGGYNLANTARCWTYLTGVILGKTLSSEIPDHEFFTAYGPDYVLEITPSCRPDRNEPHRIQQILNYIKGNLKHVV

[8] = tested on: U-251; test: cells; assay type: functional, cell-based; details: Homo sapiens, U-251, 48 h
Description: Cytotoxicity against human TMZ-sensitive U251 cells assessed as inhibition of cell growth incubated for 48 hrs by MTT assay

[9] = tested on: U-251; test: cells; assay type: functional, cell-based; details: Homo sapiens, U-251, 48 h; remark: listed apart in the source
Description: Cytotoxicity against human TMZ-resistant U251 cells assessed as inhibition of cell growth incubated for 48 hrs by MTT assay

[10] = tested on: GL26; test: Antitumor activity against mouse GL26 cells implanted in C57BL6 mouse assessed as reduction in tumor size at 50 mg/kg, ip daily measured for 10 days by bioluminescence assay; assay type: functional, organism-based; details: time 10.0 day
[11] = tested on: Mus musculus; test: In vivo inhibition of MAO-A in mouse xenografted with mouse GL26 assessed as decrease in MAO activity in brain at 25 mg/kg, ip administered for 10 days by bioluminescence assay; assay type: functional, organism-based; details: time 10.0 day
[12] = Toxicity in mouse bearing intracranial tumor assessed as assessed as median survival time at 50 mg/kg, ip for 14 days treatment started at 5 days post-infection (Rvb=12.8 days); assay type: organism-based; details: in vivo, 336 h, time 14 day
[13] = Toxicity in mouse bearing intracranial tumor assessed as last day of survival at 25 mg/kg, ip treatment started at 7 dpi (Rvb=19 days); assay type: organism-based; details: in vivo, 456 h

Sequence of Histone deacetylase 1 (Q13547 whole entry, the tested form may be a part): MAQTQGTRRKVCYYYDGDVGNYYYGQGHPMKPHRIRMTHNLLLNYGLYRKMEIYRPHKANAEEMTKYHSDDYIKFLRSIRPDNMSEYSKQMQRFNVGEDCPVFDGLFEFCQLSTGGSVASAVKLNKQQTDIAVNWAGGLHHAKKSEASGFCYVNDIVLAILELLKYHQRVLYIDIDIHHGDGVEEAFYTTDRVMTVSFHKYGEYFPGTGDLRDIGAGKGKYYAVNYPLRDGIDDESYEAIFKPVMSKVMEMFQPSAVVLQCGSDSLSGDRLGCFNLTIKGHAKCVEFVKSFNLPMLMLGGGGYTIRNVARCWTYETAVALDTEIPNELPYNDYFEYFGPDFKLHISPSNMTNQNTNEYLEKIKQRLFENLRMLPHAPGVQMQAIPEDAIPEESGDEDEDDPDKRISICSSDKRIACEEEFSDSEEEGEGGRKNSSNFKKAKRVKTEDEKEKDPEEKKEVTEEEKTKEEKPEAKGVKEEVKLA

SMILES	IC50 [1] [µM]	Activity [2]	Activity ([3]; DDE = dose-dependent effect)	IC50 [4] [µM]	IC50 [5] [µM]	IC50 [6] [µM]	IC50 [7] [µM]	IC50 [8] [µM]	IC50 [9] [µM]	Activity [10]	Activity [11]	MST [12] [days]	Survival [13] [days]	Activity [3]
C#CCN(C)CCCOc1cc(NCc2ccc(/C=C/C(=O)NO)cc2)ccc1Cl	0.12	Dde	Dde	0.004	0.51	0.1	0.08	3.24	0.99	Active	Active	12.75	22	
C#CCN(C)CCCOc1ccc(NC(=O)CCCCCCC(=O)NO)cc1Cl	6.04	Dde		0.03	0.14	0.006	0.33	2.83	2.73	Active	Active	14.25	20	Active
